# In patent US8679478B2, “Methods of lysosomal storage disease therapy” (Duke University, priority 2010, dated 2014):
# What was measured:
# Format in all cases: in vivo, mouse
# GAA-KO mice [1] = assay: Rotarod testing, liver-targeted gene therapy plus clenbuterol
# Description: FIG. 4A-4B depicts enhanced Rotarod performance and weight gain following liver-targeted gene therapy plus clenbuterol treatment. The GAA-KO mice (5 per group) were injected with AAV-LSPhGAA (2×10^10 vector particles/mouse). Vector treated mice were treated with clenbuterol or untreated. Non-vector treated GAA-KO mice were treated with clenbuterol or untreated to serve as controls. Mice were euthanized for tissue analysis 4 weeks after vector injection. […] Mean+/−standard deviation are shown. Statistically significant differences indicated (*=p<0.05; **=p<0.01).
# For in vivo analysis of AAV vectors, stocks were administered intravenously (via the retroorbital sinus) in 3 month-old and 15 month-old GAA-KO mice, and to 3 month-old tolerant GAA-KO and DKO mice. Clenbuterol (30 μg/ml) was administered to groups of 3 month-old vector-injected and mock-injected male GAA-KO mice in drinking water for 28 days. At the indicated time points post-injection, tissue samples were obtained and processed as described below. All animal procedures were done in accordance with Duke University Institutional Animal Care and Use Committee-approved guidelines. GAA activity and glycogen content were analyzed essentially as described (Sun et al., Mol. Ther., 2005, 11:889-898; Sun et al., Mol. Ther., 2005, 11: 57-65). Rotarod testing was performed essentially as described (Sun, B. D. et al. 2005). […]
# GAA-KO mice [2] = assay: Glycogen content in tissues, gene therapy plus clenbuterol; details: vector plus clenbuterol v. vector alone
# Description: FIG. 5A-5B depicts enhanced efficacy from liver-targeted gene therapy plus clenbuterol treatment. The GAA-KO mice were injected with AAV-LSPhGAA (2×10^10 vector particles/mouse) or uninjected (5 per group). Vector-treated mice were treated with AAV-LSPhGAA and clenbuterol or with AAV-LSPhGAA alone. Untreated (mock) GAA-KO mice were used as controls. Mice were euthanized for tissue analysis 4 weeks after vector injection. […] Statistically significant differences indicated (*=p<0.05; **=p<0.01).
# For in vivo analysis of AAV vectors, stocks were administered intravenously (via the retroorbital sinus) in 3 month-old and 15 month-old GAA-KO mice, and to 3 month-old tolerant GAA-KO and DKO mice. Clenbuterol (30 μg/ml) was administered to groups of 3 month-old vector-injected and mock-injected male GAA-KO mice in drinking water for 28 days. At the indicated time points post-injection, tissue samples were obtained and processed as described below. All animal procedures were done in accordance with Duke University Institutional Animal Care and Use Committee-approved guidelines. GAA activity and glycogen content were analyzed essentially as described (Sun et al., Mol. Ther., 2005, 11:889-898; Sun et al., Mol. Ther., 2005, 11: 57-65). Rotarod testing was performed essentially as described (Sun, B. D. et al. 2005). Western blotting of hGAA was performed essentially as described (Amalfitano et al., Proc. Natl. Acad. Sci. USA, 1999, 96: 8861-8866) using the hGAA monoclonal antibody (courtesy of Genzyme Corp., Framingham, Mass.) and the CI-MPR antibody (catalog number GTX28093; Gene Tex, Irvine, Calif.).
# Based upon the implication that CI-MPR expression was crucial to both uptake and intracellular processing of GAA in Pompe disease, levels of CI-MPR in GAA-KO mice were manipulated. A related but distinct strategy for addressing the apparently limiting role of CI-MPR expression in achieving efficacy with ERT in Pompe disease involved enhancement of rhGAA glycosylation (Raben et al., Mol. Genet. Metab., 2003, 80: 159-169; Raben et al., Transgenic Res., 2003, 12: 171-178; McVie-Wylie et al., Mol. Genet. Metab., 2008, 94: 448-455). […] The vector-transduced liver depot was enhanced by the addition of a drug, clenbuterol, which increases the expression of CI-MPR in muscle (Matsumoto et al., Arch. Oral Biol., 2006 51:603-611). The liver was transduced by administering AAV-LSPhGAA (2×10^10 vector particles) to groups of 3 month-old male GAA-KO mice, and clenbuterol (30 μg/ml) was administered to groups of 3 month-old vector-injected and mock-injected male GAA-KO mice in drinking water.
# [3] = tested on: immune tolerant GAA-KO mice; assay: Rotarod testing, ERT plus β2 agonist (Example 6); details: after 4 weeks of treatment; clenbuterol 6 mg/l drinking water plus ERT v. ERT alone
# Description: (§1) GAA-KO mice were administered four weekly doses of rhGAA (20 mg/kg), and treated with medium dose clenbuterol (n=7), albuterol (n=4) or untreated (n=6 or 3). […] Mean+/−standard deviation are shown. P values indicate statistically significant differences (lines).
# (§2) Two β2 agonists were evaluated in combination with ERT, clenbuterol and albuterol. The dose of clenbuterol was reduced 5-fold from the concentration used in Example 4, to 6 mg/l in drinking water, while albuterol was evaluated at the higher dose (30 mg/l in drinking water). Groups of 3 month-old immune tolerant GAA-KO mice (Raben et al., Human Mol. Genet., 2001, 10:2039-2047) were treated with four weekly doses of rhGAA (20 mg/kg body weight), with or without concurrent β2 agonist treatment.
# (§3) Mice were sacrificed 7 days after the last injection. Selected tissues were collected for GAA enzyme activity and glycogen content analyses. […] GAA activity and glycogen content analyses, Rotarod testing, and Western blot detection of CI-MPR was performed essentially as described (Koeberl et al., Mol. Genet. Metab., 2011, 103:107-112. Wire hang testing was performed with a 0.5 cm mesh hardware cloth fixed to an 8 by 10 inch frame. Mice were placed on the wire mesh, which was slowly inverted 6 inches over a cage containing paper bedding. The latency, or time until the mouse fell into the cage, was recorded.
# [4] = tested on: immune tolerant GAA-KO mice; assay: Wire hang testing, ERT plus β2 agonist; details: clenbuterol plus ERT v. ERT alone
# Description: as §1, §2, §3
# [5] = tested on: immune tolerant GAA-KO mice; assay: GAA activity in tissues, ERT plus β2 agonist (Example 6)
# Description: (§4) Male GAA-KO mice were administered four weekly doses of 20 mg/kg body weight of rhGAA and sacrificed one week following the last injection. Groups of mice were treated with clenbuterol (n=6), albuterol (n=4) or untreated (n=6). Mice were euthanized for tissue analysis 5 weeks after initiation of ERT.
# (§5) Cerebral and cerebellar hemispheres were analyzed 5 weeks following the initiation of ERT. Groups of mice were treated with clenbuterol (n=6), albuterol (n=4) or untreated (n=6).
# (§6) Two β2 agonists were evaluated in combination with ERT, clenbuterol and albuterol. […] Groups of 3 month-old immune tolerant GAA-KO mice (Raben et al., Human Mol. Genet., 2001, 10:2039-2047) were treated with four weekly doses of rhGAA (20 mg/kg body weight), with or without concurrent β2 agonist treatment.
# (§7) Mice were sacrificed 7 days after the last injection. Selected tissues were collected for GAA enzyme activity and glycogen content analyses. All animal procedures were done in accordance with Duke University Institutional Animal Care and Use Committee-approved guidelines. GAA activity and glycogen content analyses, Rotarod testing, and Western blot detection of CI-MPR was performed essentially as described (Koeberl et al., Mol. Genet. Metab., 2011, 103:107-112. Wire hang testing was performed with a 0.5 cm mesh hardware cloth fixed to an 8 by 10 inch frame. Mice were placed on the wire mesh, which was slowly inverted 6 inches over a cage containing paper bedding. The latency, or time until the mouse fell into the cage, was recorded.
# [6] = tested on: immune tolerant GAA-KO mice; assay: Glycogen content in tissues, ERT plus β2 agonist (Example 6)
# Description: as §4, §5, §6, §7
structure (smiles),measurement,setting,value
CC(C)(C)NCC(O)c1cc(Cl)c(N)c(Cl)c1 (stereo not shown) [clenbuterol],Rotarod latency increase,"GAA-KO mice [1]; clenbuterol alone v. mock treatment, p=0.02",26%
same,Rotarod latency increase,"GAA-KO mice [1]; vector plus clenbuterol (30 μg/ml drinking water) v. vector alone, 4 weeks, p<2×10^−5",75%
same,Glycogen content,"GAA-KO mice [2]; EDL, p=0.002",reduced
same,Glycogen content,"GAA-KO mice [2]; cerebellum, p=0.03",reduced
same,Glycogen content,"GAA-KO mice [2]; cerebrum, p<5×10^−5",reduced
same,Glycogen content,"GAA-KO mice [2]; diaphragm, p=0.04",reduced
same,Glycogen content,"GAA-KO mice [2]; soleus, p=0.0006",reduced
same,Rotarod latency,[3],significantly increased
same,Wire hang latency,[4],increased significantly
same,GAA activity,"[5]; cerebellum, 5 weeks after initiation of ERT, clenbuterol p=0.08, albuterol p=0.09",trend toward increased GAA activity
same,GAA activity in tissues with reduced glycogen content,[5]; β2 agonist plus ERT v. ERT alone,unchanged
same,Glycogen content,"[6]; all striated muscles with the exception of tibialis anterior, clenbuterol plus ERT v. ERT alone",reduced significantly
same,Glycogen content,"[6]; cerebellum, β2 agonist plus ERT v. ERT alone",reduced significantly
